Read-outs that look alike come from different tables or passages of the source.
Key:
HCT116 p53^−/− cells = assay: RRA cytotoxicity, HCT116 p53^−/−; conditions: for IC50: Homo sapiens, HCT-116, 72 h; for Degree of resistance: IC50 HCT116 p53^−/− versus HCT116 p53^+/+
Description: (§2) The sources of the HepG2 hepatocarcinoma [27], U87MG glioblastoma cells and its resistant epidermal growth factor receptor (EGFR) transfected subline, U87MG.ΔEGFR [28], HCT116 p53^+/+ colon adenocarcinoma cells and its resistant knock-out congener, HCT116 p53^−/− [29], MDA-MB-231-pcDNA3 breast adenocarcinoma cells and its multidrug-resistant breast cancer resistance protein (BCRP)-transfected MDA-MB-231-BCRP clone 23 subline [30] have also been described. […] These culture media were used as complete media with additional 10% fetal bovine serum and 1% penicillin/streptomycin (Invitrogen, Eggenstein, Germany).
(§3) Botanicals were tested in the concentration range of 0.63–80 µg/mL, the isolated compounds at 0.78—100 µM; the treated cells were incubated for 72 h; the fluorescence was measured at the excitation wavelength of 544 nm and at the emission wavelengths of 590 nm using Infinite M2000 Pro™ plate reader (Tecan, Crailsheim, Germany).

[1] = system: CEM/ADR5000 leukemia cells (P-gp-overexpressing); assay: RRA cytotoxicity, CEM/ADR5000; conditions: for IC50: Homo sapiens, ADR5000, 72 h; for Degree of resistance: IC50 CEM/ADR5000 versus CCRF-CEM
Description: These culture media were used as complete media with additional 10% fetal bovine serum and 1% penicillin/streptomycin (Invitrogen, Eggenstein, Germany).

normal AML12 hepatocytes = assay: RRA cytotoxicity, normal AML12 hepatocytes; conditions: Mus musculus, AML12, 72 h
U87MG.ΔEGFR cells = assay: RRA cytotoxicity, U87MG.ΔEGFR; conditions: for IC50: Homo sapiens, 72 h; for Degree of resistance: IC50 U87MG.ΔEGFR versus U87MG
Description: as §2, §3

[2] = system: HCT116 p53^+/+ colon adenocarcinoma cells; assay: RRA cytotoxicity, HCT116 p53^+/+; conditions: Homo sapiens, HCT-116, 72 h
Description: (§4) The sources of the HepG2 hepatocarcinoma [27], U87MG glioblastoma cells and its resistant epidermal growth factor receptor (EGFR) transfected subline, U87MG.ΔEGFR [28], HCT116 p53^+/+ colon adenocarcinoma cells and its resistant knock-out congener, HCT116 p53^−/− [29], MDA-MB-231-pcDNA3 breast adenocarcinoma cells and its multidrug-resistant breast cancer resistance protein (BCRP)-transfected MDA-MB-231-BCRP clone 23 subline [30] have also been described. To compare the activity of samples in HepG2 cells, the AML12 hepatocytes were used [31]. […] These culture media were used as complete media with additional 10% fetal bovine serum and 1% penicillin/streptomycin (Invitrogen, Eggenstein, Germany).
as §3

MDA-MB-231-BCRP cells = assay: RRA cytotoxicity, MDA-MB-231-BCRP; conditions: for IC50: Homo sapiens, MDA-MB-231/BCRP, 72 h; for Degree of resistance: IC50 MDA-MB-231-BCRP versus MDA-MB-231-pcDNA
Description: as §2, §3

CCRF-CEM leukemia cells = assay: Resazurin reduction assay (RRA) cytotoxicity, CCRF-CEM; conditions: Homo sapiens, 72 h
[3] = system: HepG2 hepatocarcinoma cells; assay: RRA cytotoxicity, HepG2; conditions: Homo sapiens, HepG2, 72 h
Description: as §4, §3

U87MG glioblastoma cells = assay: RRA cytotoxicity, U87MG; conditions: Homo sapiens, U-87 MG, 72 h
Description: as §4, §3

[4] = system: MDA-MB-231-pcDNA breast adenocarcinoma cells; assay: RRA cytotoxicity, MDA-MB-231-pcDNA; conditions: Homo sapiens, 72 h
Description: as §4, §3

MCF-7 cells = system: MCF-7 cells; set-up: method as in PMID 22213398; conditions: cited from earlier work
[5] = system: human hepatocellular carcinoma HuH7 cells; conditions: cited from earlier work
[6] = system: cancer cell lines tested in the current work; set-up: method as in PMID 30703492; conditions: cited from earlier work
[7] = system: 9 tested cancer cell lines; assay: RRA cytotoxicity, whole panel of cancer cell lines; conditions: 9 cancer cell lines, up to 50 µM
[8] = system: reactive oxygen species (ROS) production in CCRF-CEM cells; assay: ROS production, H2DCFH-DA staining and flow cytometry; type: cell-based, human; conditions: 24 h, 50 µM, untreated cells 0.6%
Description: (§1) The treated cells (1 mL; 1 × 10^6 cells) were incubated for 24 h under the standard cell culture condition. Cells were further stained for 30 min with 10 µL of staining solution ([…] or H2DCFH-DA solution for ROS evaluation) according to the manufacturer’s protocol. Using the LSRFortessa FACS analyzer (Becton–Dickinson, Heidelberg, Germany), the amount of 1 × 10^4 cells was further measured as described earlier.

[9] = system: mitochondrial membrane potential (MMP) of CCRF-CEM cells; assay: MMP analysis, JC-1 staining and flow cytometry; type: cell-based, human; conditions: 24 h
Description: as §1

## COc1cc2oc(-c3ccc(O)c(O)c3)c(OC)c(=O)c2c(O)c1C [Compound 2, 6-C-methylquercetin-3,7-dimethyl ether]
HCT116 p53^−/− cells
  IC50: 9.2 ± 0.45 µM
  Degree of resistance: 0.75
[1]
  IC50: 9.11 ± 0.18 µM
  Degree of resistance: 0.76
Normal AML12 hepatocytes
  IC50: > 50 µM
other
  melting point: 195 to 197 °C
U87MG.ΔEGFR cells
  IC50: 21.1 ± 2.4 µM
  Degree of resistance: 0.85
[2]
  IC50: 12.3 ± 1.24 µM
MDA-MB-231-BCRP cells
  IC50: 14.3 ± 1.12 µM
  Degree of resistance: 1.45
CCRF-CEM leukemia cells
  IC50: 12 ± 1.25 µM
[3]
  IC50: 19.6 ± 1.44 µM
U87MG glioblastoma cells
  IC50: 24.8 ± 2.22 µM
[4]
  IC50: 9.84 ± 0.66 µM

## C[C@H]1[C@H](C)CC[C@]2(C(=O)O)CC[C@]3(C)C(=CC[C@@H]4[C@@]5(C)CC[C@H](O)C(C)(C)[C@@H]5CC[C@]43C)[C@H]12 [Compound 9, ursolic acid]
MCF-7 cells; MCF-7, converted from μg/mL, read-out: IC50
  IC50: 15.6 µM
MCF-7 cells; MCF-7
  IC50: 7.1 µg/mL
[5]
  IC50: 75 µM

## CCC(CCC(C)C1CCC2C3CC=C4CC(OC5OC(CO)C(O)C(O)C5O)CCC4(C)C3CCC12C)C(C)C [Compound 10, 3-O-β-D-glucopyranoside of β-sitosterol]
HCT116 p53^−/− cells
  IC50: > 50 µM
[1]
  IC50: > 50 µM
  Degree of resistance: > 1.13
[6]
  IC50: > 100 µM
[7]
  Cytotoxic activity in the panel: selectively active
Normal AML12 hepatocytes
  IC50: > 50 µM
U87MG.ΔEGFR cells
  IC50: > 50 µM
[2]
  IC50: > 50 µM
MDA-MB-231-BCRP cells
  IC50: > 50 µM
CCRF-CEM leukemia cells
  IC50: 44.3 ± 3.91 µM
[3]
  IC50: > 50 µM
U87MG glioblastoma cells
  IC50: > 50 µM
[4]
  IC50: > 50 µM

## OO [H2O2, hydrogen peroxide, reference compound]
[8]
  ROS level: 94.30%

## CC(C)[C@@H]1NC(=O)[C@H](C)OC(=O)[C@@H](C(C)C)NC(=O)[C@@H](C(C)C)OC(=O)[C@H](C(C)C)NC(=O)[C@H](C)OC(=O)[C@@H](C(C)C)NC(=O)[C@@H](C(C)C)OC(=O)[C@H](C(C)C)NC(=O)[C@H](C)OC(=O)[C@@H](C(C)C)NC(=O)[C@@H](C(C)C)OC1=O [Valinomycin, valinomycin, reference compound]
[9]
  Effect on the integrity of the MMP: strongly altered the integrity of the MMP
[9]; positive control, picture: at 25 (no unit), text: 2 × IC50
  Q1, cells with undamaged (intact) MMP: 38.6%

## COc1cccc2c1C(=O)c1c(O)c3c(c(O)c1C2=O)C[C@@](O)(C(=O)CO)C[C@@H]3O[C@H]1C[C@H](N)[C@H](O)[C@H](C)O1 [Doxorubicin, doxorubicin, reference compound]
HCT116 p53^−/− cells
  IC50: 1.78 ± 0.08 µM
  Degree of resistance: 3.73
[1]
  IC50: 123 ± 10.9 µM
  Degree of resistance: 6,683.00
Normal AML12 hepatocytes
  IC50: > 50 µM
U87MG.ΔEGFR cells
  IC50: 0.98 ± 0.07 µM
  Degree of resistance: 3.79
MDA-MB-231-BCRP cells
  IC50: 0.79 ± 0.08 µM
  Degree of resistance: 6.14
CCRF-CEM leukemia cells
  IC50: 0.02 µM
[3]
  IC50: 4.56 ± 0.48 µM
U87MG glioblastoma cells
  IC50: 0.26 ± 0.03 µM
[4]
  IC50: 0.13 ± 0.01 µM

Reference: paper PMC10523748, “Cytotoxicity, acute and sub-chronic toxicities of the leaves of Bauhinia thonningii (Schumach.) Milne-Redh. (Caesalpiniaceae)” (BMC Complementary Medicine and Therapies, 2023)
